Like-named read-outs stand apart in the source and are kept apart here.
What was measured:
full-length human RORγt = full-length human RORγt (Homo sapiens (Human), UniProt P51449); assay: RORγt (full-length human) reporter assay, Conditions B or C; assay type: cell-based; settings: for inhibition at 3 µM: at 3 μM compound concentration; for IC50: read-out: RORγt (FL) Reporter Assay B or C, IC50; for inhibition at 1 µM: at 1 μM compound concentration; for RORγt (FL) Reporter Assay B or C, % inhibition (value marked *): marked *: footnote not given
Chain of full-length human RORγt (P51449 other isoform, or with tags, fused parts or gaps): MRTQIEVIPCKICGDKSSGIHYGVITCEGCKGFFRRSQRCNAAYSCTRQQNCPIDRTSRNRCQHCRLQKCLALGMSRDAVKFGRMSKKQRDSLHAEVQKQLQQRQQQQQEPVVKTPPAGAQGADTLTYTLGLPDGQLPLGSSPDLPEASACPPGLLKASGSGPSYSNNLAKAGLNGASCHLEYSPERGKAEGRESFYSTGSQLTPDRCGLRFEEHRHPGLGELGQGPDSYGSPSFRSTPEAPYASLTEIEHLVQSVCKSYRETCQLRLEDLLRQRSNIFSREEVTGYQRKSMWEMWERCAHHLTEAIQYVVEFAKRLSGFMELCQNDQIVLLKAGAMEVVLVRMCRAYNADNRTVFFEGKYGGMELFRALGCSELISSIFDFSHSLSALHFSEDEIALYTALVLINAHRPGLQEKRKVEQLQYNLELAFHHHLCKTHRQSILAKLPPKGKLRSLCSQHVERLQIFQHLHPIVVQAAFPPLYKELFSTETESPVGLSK
Method in brief: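 Readout is dual luciferase: firefly (GAL4-driven) normalized to DMSO-only and saturating-reference controls, then to CMV-Renilla. Full-length human RORγt fused to GAL4-DBD was transiently expressed in HEK293T; compound exposure ran overnight (16-20 h) starting 4-6 h after transfection, final FBS 1.3%, DMSO 0.1%.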

[1] = target: human RORγt ligand binding domain (RORγt LBD) (Homo sapiens (Human), UniProt P51449); assay: RORγt ThermoFluor® assay (thermal shift binding); settings: read-out: ThermoFluor® Assay, Kd
Chain of human RORγt ligand binding domain (RORγt LBD) (P51449 other isoform, or with tags, fused parts or gaps): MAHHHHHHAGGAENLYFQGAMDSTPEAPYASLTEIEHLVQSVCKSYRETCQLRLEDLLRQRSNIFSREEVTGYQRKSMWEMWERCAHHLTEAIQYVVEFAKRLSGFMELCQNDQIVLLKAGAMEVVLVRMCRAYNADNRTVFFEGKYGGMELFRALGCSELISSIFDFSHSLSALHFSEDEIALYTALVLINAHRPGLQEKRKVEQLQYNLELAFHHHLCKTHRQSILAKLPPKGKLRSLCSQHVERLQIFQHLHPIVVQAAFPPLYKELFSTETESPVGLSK
Method in brief: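 Binding was inferred from thermal stabilisation (ΔTm) of the E. coli-expressed RORγt LBD (0.065 mg/mL), monitored by 1,8-ANS (60 μM) emission at 500 nm during a 1 °C/min ramp. Buffer was Hepes 100 mM pH 7.0 with NaCl, GSH and Tween-20.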

[2] = read-out: RORγt (FL) Reporter Assay B or C, % inhibition

Row | SMILES | inhibition at 3 µM (full-length human RORγt; [2]) [%] | IC50 (full-length human RORγt) [nM] | Kd [1] [nM] | inhibition at 1 µM (full-length human RORγt; [2]) [%] | RORγt (FL) Reporter Assay B or C, % inhibition (value marked *) (full-length human RORγt; Conditions B or C) | IC50 (full-length human RORγt; Conditions B or C) [nM] | inhibition at 0.33 µM (full-length human RORγt; at 0.33 μM compound concentration, read-out: RORγt (FL) Reporter Assay B or C, % inhibition) [%]
1 | C[C@H]1CCCN1C(=O)c1nc(C(=O)N[C@H](C)C(C)(C)O)sc1-c1cnc(NC(C)(C)C)cc1C(F)(F)F [Example 335, 5-[6-(tert-Butylamino)-4-(trifluoromethyl)-3-pyridyl]-N-[(1R)-2-hydroxy-1,2-dimethyl-propyl]-4-[(2S)-2-methylpyrrolidine-1-carbonyl]thiazole-2-carboxamide] | 102 | 40 | 1.3 |  |  |  | 
2 | CC[C@H](Nc1cc(C(F)F)c(-c2sc(C(=O)N[C@H]3COC[C@H]3O)nc2C(=O)N2CCC[C@@H]2C)cn1)C(F)(F)F (single isomer, unassigned) [Example 165, 5-(4-(Difluoromethyl)-6-(((S)-1,1,1-trifluorobutan-2-yl)amino)pyridin-3-yl)-N-((3S*,4S*)-4-hydroxytetrahydrofuran-3-yl)-4-((S)-2-methylpyrrolidine-1-carbonyl)thiazole-2-carboxamide] |  |  | 3.1 |  | 98* % | 40 | 
3 | C[C@H]1CCCN1C(=O)c1nc(C(=O)N2CC(C)(O)C2)sc1-c1cnc(NC(C)(C)C)cc1C(F)F [Example 149, [5-[6-(tert-Butylamino)-4-(difluoromethyl)-3-pyridyl]-2-(3-hydroxy-3-methyl-azetidine-1-carbonyl)thiazol-4-yl]-[(2S)-2-methylpyrrolidin-1-yl]methanone] |  |  | 20 |  | 108* % | 100 | 
4 | CC(C)(C)Nc1cc(C(F)F)c(-c2sc(C(=O)NC3CCS(=O)(=O)CC3)nc2C(=O)N2C3CCC2CC3)cn1 [Example 433, 4-((1s,4s)-7-Azabicyclo[2.2.1]heptane-7-carbonyl)-5-[6-(tert-butylamino)-4-(difluoromethyl)-3-pyridyl]-N-(1,1-dioxothian-4-yl)thiazole-2-carboxamide] | 128 | 25 | 1.2 |  |  |  | 
5 | C[C@H]1CC(F)(F)CN1C(=O)c1nc(C(=O)NCC(C)(C)O)sc1-c1cnc(NC(C)(C)C2CC2)cc1C(F)F [Example 106, (S)-5-(6-((2-Cyclopropylpropan-2-yl)amino)-4-(difluoromethyl)pyridin-3-yl)-4-(4,4-difluoro-2-methylpyrrolidine-1-carbonyl)-N-(2-hydroxy-2-methylpropyl)thiazole-2-carboxamide] |  |  | 0.79 |  | 117* % | 22 | 
6 | CC(C)(O)CNC(=O)c1nc(C(=O)N2C3CCC2CC3)c(-c2cnc(NCC3(C(F)(F)F)CCC3)cc2C(F)(F)F)s1 [Example 119, 4-((1s,4s)-7-Azabicyclo[2.2.1]heptane-7-carbonyl)-N-(2-hydroxy-2-methylpropyl)-5-(4-(trifluoromethyl)-6-(((1-(trifluoromethyl)cyclobutyl)methyl)amino)pyridin-3-yl)thiazole-2-carboxamide] |  |  | 1.5 |  | 108* % | 17 | 
7 | C[C@@H](CO)NC(=O)c1nc(C(=O)N2CCC[C@@H]2C)c(-c2cnc(NC(C)(C)C)cc2C(F)(F)F)s1 [Example 362, 5-[6-(tert-Butylamino)-4-(trifluoromethyl)-3-pyridyl]-N-[(1S)-2-hydroxy-1-methyl-ethyl]-4-[(2S)-2-methylpyrrolidine-1-carbonyl]thiazole-2-carboxamide] | 99 | 21 | 4 |  |  |  | 
8 | CC[C@H](Nc1cc(C(F)F)c(-c2sc(C(=O)NC3CCS(=O)(=O)CC3)nc2C(=O)N2C3CCC2CC3)cn1)C(F)(F)F [Example 154] |  |  | 1 |  | 99* % | 98 | 
9 | C[C@H](NC(=O)c1nc(C(=O)N2C3CCC2CC3)c(-c2cnc(N[C@@H](C)C(F)(F)F)cc2C(F)F)s1)C(C)(C)O [Example 446, 4-((1s,4s)-7-Azabicyclo[2.2.1]heptane-7-carbonyl)-5-[4-(difluoromethyl)-6-[[(1S)-2,2,2-trifluoro-1-methyl-ethyl]amino]-3-pyridyl]-N-[(1S)-2-hydroxy-1,2-dimethyl-propyl]thiazole-2-carboxamide] | 108 | 180 | 13 |  |  |  | 
10 | CC(C)(O)CNC(=O)c1nc(C(=O)N2C3CCC2CC3)c(-c2cnc(NC(C3CC3)C3CC3)cc2C(F)F)s1 [Example 178, 4-((1s,4s)-7-Azabicyclo[2.2.1]heptane-7-carbonyl)-5-(6-((dicyclopropylmethyl)amino)-4-(difluoromethyl)pyridine-3-yl)-N-(2-hydroxy-2-methylpropyl)thiazole-2-carboxamide] |  |  | 2 |  | 102* % | 5.5 | 
11 | C[C@H]1CCCN1C(=O)c1nc(C(=O)N[C@H]2COC[C@@H]2O)sc1-c1cnc(NC(C)(C)C)cc1C(F)F [Example 401, 5-[6-(tert-Butylamino)-4-(difluoromethyl)-3-pyridyl]-N-[(3S,4R)-4-hydroxytetrahydrofuran-3-yl]-4-[(2S)-2-methylpyrrolidine-1-carbonyl]thiazole-2-carboxamide] |  | 38 | 4.3 | 102 |  |  | 
12 | CC[C@H](Nc1cc(C(F)F)c(-c2sc(C(=O)N[C@@H]3COC[C@@H]3O)nc2C(=O)N2CCC[C@@H]2C)cn1)C(F)(F)F (single isomer, unassigned) [Example 162, 5-(4-(Difluoromethyl)-6-(((S)-1,1,1-trifluorobutan-2-yl)amino)pyridin-3-yl)-N-((3R*,4R*)-4-hydroxytetrahydrofuran-3-yl)-4-((S)-2-methylpyrrolidine-1-carbonyl)thiazole-2-carboxamide] |  |  | 9.5 |  | 104* % | 31 | 

The remaining lines, values ahead:

Row | inhibition at 3 µM (full-length human RORγt; [2]) [%] | IC50 (full-length human RORγt) [nM] | Kd [1] [nM] | inhibition at 1 µM (full-length human RORγt; [2]) [%] | RORγt (FL) Reporter Assay B or C, % inhibition (value marked *) (full-length human RORγt; Conditions B or C) | IC50 (full-length human RORγt; Conditions B or C) [nM] | inhibition at 0.33 µM (full-length human RORγt; at 0.33 μM compound concentration, read-out: RORγt (FL) Reporter Assay B or C, % inhibition) [%] | SMILES
13 |  | 16 | 6.1 | 118 |  |  |  | C[C@H]1CCCN1C(=O)c1nc(C(=O)NCC(C)(C)O)sc1-c1cnc(NCC2(C(F)(F)F)CC2)cc1C(F)F [Example 276, 5-[4-(Difluoromethyl)-6-[[1-(trifluoromethyl)cyclopropyl]methylamino]-3-pyridyl]-N-(2-hydroxy-2-methyl-propyl)-4-[(2S)-2-methylpyrrolidine-1-carbonyl]thiazole-2-carboxamide]
14 |  |  | 1.4 |  | 92* % | 58 |  | CC[C@H](Nc1cc(C(F)F)c(-c2sc(C(=O)N[C@@H]3CCC[C@H]3O)nc2C(=O)N2CCC[C@@H]2C)cn1)C(F)(F)F [Example 231, 5-[4-(Difluoromethyl)-6-[[(1S)-1-(trifluoromethyl)propyl]amino]-3-pyridyl]-N-[(1R,2R)-2-hydroxycyclopentyl]-4-[(2S)-2-methylpyrrolidine-1-carbonyl]thiazole-2-carboxamide]
15 | 87 | 100 | 5.2 |  |  |  |  | C[C@H]1CCCN1C(=O)c1nc(C(=O)N[C@H](C)C(C)(C)O)sc1-c1cnc(NC2(C)CCC2)cc1C(F)F [Example 321, 5-(4-(Difluoromethyl)-6-((1-methylcyclobutyl)amino)pyridin-3-yl)-N—((R)-3-hydroxy-3-methylbutan-2-yl)-4-((S)-2-methylpyrrolidine-1-carbonyl)thiazole-2-carboxamide]
16 | 106 | 35 | 1.2 |  |  |  |  | CC[C@H](Nc1cc(C(F)F)c(-c2sc(C(=O)NC3CCCC3O)nc2C(=O)N2CCC[C@@H]2C)cn1)C(F)(F)F (stereo partly drawn) [Example 252, 5-(4-(Difluoromethyl)-6-(((S)-1,1,1-trifluorobutan-2-yl)amino)pyridin-3-yl)-N-(cis-2-hydroxycyclopentyl)-4-((S)-2-methylpyrrolidine-1-carbonyl)thiazole-2-carboxamide]
17 | 100 | 120 | 15 |  |  |  |  | CC[C@@H](CO)NC(=O)c1nc(C(=O)N2CCC[C@@H]2C)c(-c2cnc(N[C@@H](C)C(F)(F)F)cc2C(F)F)s1 [Example 407, 5-[4-(Difluoromethyl)-6-[[(1S)-2,2,2-trifluoro-1-methyl-ethyl]amino]-3-pyridyl]-N-[(1S)-1-(hydroxymethyl)propyl]-4-[(2S)-2-methylpyrrolidine-1-carbonyl]thiazole-2-carboxamide]
18 |  | 5.3 | 3.2 |  |  |  | 53 | C[C@H](NC(=O)c1nc(C(=O)N2CCC[C@@H]2C)c(-c2cnc(NCC(C)(C)C)cc2C(F)F)s1)C(C)(C)O [Example 344, 5-[4-(Difluoromethyl)-6-(2,2-dimethylpropylamino)-3-pyridyl]-N-[(1S)-2-hydroxy-1,2-dimethyl-propyl]-4-[(2S)-2-methylpyrrolidine-1-carbonyl]thiazole-2-carboxamide]
19 | 107 | 40 | 3.7 |  |  |  |  | C[C@H]1CCCN1C(=O)c1nc(C(=O)N[C@H](C)C(C)(C)O)sc1-c1cnc(N[C@@H](C2CC2)C(F)(F)F)cc1C(F)F [Example 311, 5-(6-(((S)-1-Cyclopropyl-2,2,2-trifluoroethyl)amino)-4-(difluoromethyl)pyridin-3-yl)-N—((R)-3-hydroxy-3-methylbutan-2-yl)-4-((S)-2-methylpyrrolidine-1-carbonyl)thiazole-2-carboxamide]
20 |  |  | 2.4 |  | 99* % | 15 |  | CC[C@@H](Nc1cc(C(F)F)c(-c2sc(C(=O)N[C@@H](C)C(C)(C)O)nc2C(=O)N2CCC[C@@H]2C)cn1)C(F)(F)F [Example 230]

Reference: US10975068B2, “6-aminopyridin-3-yl thiazoles as modulators of RORγT” (Janssen Pharmaceutica NV, priority 2016, dated 2021)
